Measurements: ChEMBL document CHEMBL1153372, “A selective matrix metalloprotease 12 inhibitor for potential treatment of chronic obstructive pulmonary disease (COPD): discovery of (S)-2-(8-(methoxycarbonylamino)dibenzo[b,d]furan-3-sulfonamido)-3-methylbutanoic acid (MMP408)” (J Med Chem, 2009)
Each block holds one molecule with its values, some of them ahead of it.

Experiments:
[1] = molecular target: Collagenase 3 (Homo sapiens, UniProt P45452); experiment: Inhibition of human recombinant MMP13 expressed in Escherichia coli
[2] = Volume of distribution at steady state in C57BL/6 mouse at 2 mg/kg, iv; format: ADME, organism-based; design: dose 2 mg/kg, route intravenous; conditions: in vivo, read-out: Vdss
[3] = Clearance in C57BL/6 mouse at 2 mg/kg, iv; format: ADME, organism-based; design: dose 2 mg/kg, route intravenous; conditions: in vivo
[4] = Cmax in C57BL/6 mouse at 30 mg/kg, po; format: ADME, organism-based; design: dose 30 mg/kg, route oral; conditions: in vivo
[5] = AUC in C57BL/6 mouse at 30 mg/kg, po; format: ADME, organism-based; design: dose 30 mg/kg, route oral; conditions: plasma
[6] = Oral bioavailability in C57BL/6 mouse at 30 mg/kg; format: ADME, organism-based; conditions: in vivo
[7] = molecular target: Stromelysin-1 (Homo sapiens, UniProt P08254); experiment: Inhibition of human MMP3
[8] = molecular target: T1, Matrilysin (Homo sapiens, UniProt P09237); experiment: Inhibition of human MMP7
T1 sequence (P09237 whole entry): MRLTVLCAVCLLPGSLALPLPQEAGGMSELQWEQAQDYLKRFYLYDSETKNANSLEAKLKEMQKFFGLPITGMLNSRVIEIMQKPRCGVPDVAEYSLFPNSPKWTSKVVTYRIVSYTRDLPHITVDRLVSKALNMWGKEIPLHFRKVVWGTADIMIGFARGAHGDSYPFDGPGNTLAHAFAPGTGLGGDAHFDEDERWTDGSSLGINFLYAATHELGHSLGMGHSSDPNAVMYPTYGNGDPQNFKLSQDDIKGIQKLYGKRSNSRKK

[9] = molecular target: Matrix metalloproteinase-9 (Homo sapiens, UniProt P14780); experiment: Inhibition of human MMP9
[10] = molecular target: T2, A disintegrin and metalloproteinase with thrombospondin motifs 4 (Homo sapiens, UniProt O75173); experiment: Inhibition of human Aggrecanase-1
T2 sequence (O75173 whole entry): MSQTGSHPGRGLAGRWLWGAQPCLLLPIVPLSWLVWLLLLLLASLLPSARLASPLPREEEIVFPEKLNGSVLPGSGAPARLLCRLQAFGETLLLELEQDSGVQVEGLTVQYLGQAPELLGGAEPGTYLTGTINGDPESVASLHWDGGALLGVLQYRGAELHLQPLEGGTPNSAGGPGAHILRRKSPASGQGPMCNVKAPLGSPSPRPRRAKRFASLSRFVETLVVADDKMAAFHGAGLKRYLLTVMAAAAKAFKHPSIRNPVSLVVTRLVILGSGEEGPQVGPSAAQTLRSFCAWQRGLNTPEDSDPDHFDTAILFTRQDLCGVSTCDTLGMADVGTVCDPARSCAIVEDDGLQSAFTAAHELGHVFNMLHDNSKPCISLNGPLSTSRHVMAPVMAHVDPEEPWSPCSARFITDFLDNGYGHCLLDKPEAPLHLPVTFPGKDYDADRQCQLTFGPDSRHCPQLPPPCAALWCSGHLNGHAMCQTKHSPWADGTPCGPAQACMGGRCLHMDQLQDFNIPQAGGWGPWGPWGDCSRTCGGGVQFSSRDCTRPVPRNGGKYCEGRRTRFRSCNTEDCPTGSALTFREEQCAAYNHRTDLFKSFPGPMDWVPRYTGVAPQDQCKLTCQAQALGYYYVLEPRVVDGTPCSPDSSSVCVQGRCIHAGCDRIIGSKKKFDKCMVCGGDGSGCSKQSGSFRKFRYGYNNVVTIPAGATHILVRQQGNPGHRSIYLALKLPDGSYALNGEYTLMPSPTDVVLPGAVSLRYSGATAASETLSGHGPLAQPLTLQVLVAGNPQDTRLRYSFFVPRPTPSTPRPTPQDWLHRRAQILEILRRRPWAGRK

[11] = molecular target: T3, A disintegrin and metalloproteinase with thrombospondin motifs 5 (Homo sapiens, UniProt Q9UNA0); experiment: Inhibition of human Aggrecanase-2
T3 sequence (Q9UNA0 whole entry): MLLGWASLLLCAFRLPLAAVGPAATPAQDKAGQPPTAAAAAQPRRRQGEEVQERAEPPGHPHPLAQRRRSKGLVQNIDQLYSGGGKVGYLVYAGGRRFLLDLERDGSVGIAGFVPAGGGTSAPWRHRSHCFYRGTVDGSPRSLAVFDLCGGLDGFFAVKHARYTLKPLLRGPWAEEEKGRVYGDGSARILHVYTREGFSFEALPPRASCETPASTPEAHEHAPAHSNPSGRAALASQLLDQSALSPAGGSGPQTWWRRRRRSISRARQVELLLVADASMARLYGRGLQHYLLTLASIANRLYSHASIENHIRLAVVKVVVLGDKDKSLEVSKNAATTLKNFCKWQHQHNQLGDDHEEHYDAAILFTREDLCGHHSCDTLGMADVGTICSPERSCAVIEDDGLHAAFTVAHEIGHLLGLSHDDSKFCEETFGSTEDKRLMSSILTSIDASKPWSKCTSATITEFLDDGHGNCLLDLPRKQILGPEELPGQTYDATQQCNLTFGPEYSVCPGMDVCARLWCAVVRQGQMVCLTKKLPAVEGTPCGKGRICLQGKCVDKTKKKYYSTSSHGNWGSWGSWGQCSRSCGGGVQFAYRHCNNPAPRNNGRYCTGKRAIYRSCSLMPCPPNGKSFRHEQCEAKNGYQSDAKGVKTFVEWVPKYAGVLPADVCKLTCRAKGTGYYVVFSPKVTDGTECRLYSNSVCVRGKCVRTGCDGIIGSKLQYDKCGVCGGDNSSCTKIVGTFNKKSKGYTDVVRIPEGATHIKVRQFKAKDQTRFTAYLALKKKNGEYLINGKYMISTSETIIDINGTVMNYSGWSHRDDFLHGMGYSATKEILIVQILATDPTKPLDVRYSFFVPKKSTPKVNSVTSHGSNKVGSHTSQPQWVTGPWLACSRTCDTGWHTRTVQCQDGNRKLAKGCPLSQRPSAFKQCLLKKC

[12] = molecular target: Matrix metalloproteinase-14 (Homo sapiens, UniProt P50281); experiment: Inhibition of human MMP14
[13] = Metabolic stability in mouse liver microsomes; format: ADME, Microsome
[14] = Metabolic stability in rat liver microsomes; format: ADME, Microsome
[15] = Metabolic stability in dog liver microsomes; format: ADME, Canis lupus familiaris, Microsome
[16] = Metabolic stability in monkey liver microsomes; format: ADME, Macaca mulatta, Microsome; conditions: rhesus monkey
[17] = molecular target: Voltage-gated inwardly rectifying potassium channel KCNH2 (Homo sapiens, UniProt Q12809); experiment: Inhibition of human ERG channel
[18] = Metabolic stability in human liver microsomes; format: ADME, Microsome
[19] = system: Mus musculus; experiment: Inhibition of human recombinant MMP-12-induced lung inflammation in C57BL/6 mouse chronic obstructive pulmonary disease model assessed as inhibition of bronchoalveolar lavage fluid macrophage level at 30 mg/kg, po qd; format: functional; conditions: C57BL/6, Lung
[20] = system: Mus musculus; experiment: Inhibition of human recombinant MMP-12-induced lung inflammation in po dosed C57BL/6 mouse chronic obstructive pulmonary disease model assessed as inhibition of lung inflammation dosed twice daily; format: functional; conditions: C57BL/6, po, read-out: MED
[21] = system: Mus musculus; experiment: Inhibition of human recombinant MMP-12-induced lung inflammation in C57BL/6 mouse chronic obstructive pulmonary disease model assessed as inhibition of bronchoalveolar lavage fluid inflammation at 30 mg/kg, po qd; format: functional; conditions: C57BL/6, Lung
[22] = molecular target: T4, Interstitial collagenase (Homo sapiens, UniProt P03956); experiment: Inhibition of human MMP1
T4 sequence (P03956 whole entry): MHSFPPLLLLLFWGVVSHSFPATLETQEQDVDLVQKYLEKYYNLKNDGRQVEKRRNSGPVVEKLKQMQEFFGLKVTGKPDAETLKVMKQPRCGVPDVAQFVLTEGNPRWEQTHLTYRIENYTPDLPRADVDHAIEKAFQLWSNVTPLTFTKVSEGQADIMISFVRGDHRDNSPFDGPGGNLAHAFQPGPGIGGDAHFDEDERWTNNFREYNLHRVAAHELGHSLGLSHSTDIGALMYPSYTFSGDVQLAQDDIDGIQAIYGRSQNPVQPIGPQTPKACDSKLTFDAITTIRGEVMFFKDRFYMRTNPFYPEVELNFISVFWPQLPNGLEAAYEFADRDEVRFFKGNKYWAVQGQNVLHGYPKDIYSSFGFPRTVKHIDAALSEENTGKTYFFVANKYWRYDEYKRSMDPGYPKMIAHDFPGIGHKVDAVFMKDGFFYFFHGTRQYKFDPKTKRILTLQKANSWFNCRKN

[23] = Inhibition of sheep MMP12; design: species or system Ovis aries
[24] = molecular target: Macrophage metalloelastase (Mus musculus, UniProt P34960); experiment: Inhibition of mouse recombinant MMP12
[25] = Half life in C57BL/6 mouse at 30 mg/kg, po; format: ADME, organism-based; design: dose 30 mg/kg, route oral; conditions: in vivo
[26] = molecular target: Macrophage metalloelastase (Rattus norvegicus, UniProt Q63341)
Macrophage metalloelastase (Rattus norvegicus, UniProt Q63341), sequence (Q63341 whole entry): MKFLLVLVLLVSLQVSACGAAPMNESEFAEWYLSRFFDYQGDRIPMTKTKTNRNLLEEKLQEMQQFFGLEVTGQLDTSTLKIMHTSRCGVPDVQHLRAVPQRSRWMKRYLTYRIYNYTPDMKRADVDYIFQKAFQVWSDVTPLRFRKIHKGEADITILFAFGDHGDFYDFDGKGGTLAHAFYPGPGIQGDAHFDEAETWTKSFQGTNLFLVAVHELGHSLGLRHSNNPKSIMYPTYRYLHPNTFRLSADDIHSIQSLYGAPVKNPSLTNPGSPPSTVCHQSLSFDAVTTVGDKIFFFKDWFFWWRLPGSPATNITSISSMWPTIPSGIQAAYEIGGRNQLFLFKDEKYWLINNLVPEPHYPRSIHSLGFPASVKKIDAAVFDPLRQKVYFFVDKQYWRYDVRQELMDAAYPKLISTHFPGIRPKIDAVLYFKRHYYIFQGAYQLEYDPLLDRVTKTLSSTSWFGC

Voltage-gated inwardly rectifying potassium channel KCNH2, sequence (Q12809 whole entry): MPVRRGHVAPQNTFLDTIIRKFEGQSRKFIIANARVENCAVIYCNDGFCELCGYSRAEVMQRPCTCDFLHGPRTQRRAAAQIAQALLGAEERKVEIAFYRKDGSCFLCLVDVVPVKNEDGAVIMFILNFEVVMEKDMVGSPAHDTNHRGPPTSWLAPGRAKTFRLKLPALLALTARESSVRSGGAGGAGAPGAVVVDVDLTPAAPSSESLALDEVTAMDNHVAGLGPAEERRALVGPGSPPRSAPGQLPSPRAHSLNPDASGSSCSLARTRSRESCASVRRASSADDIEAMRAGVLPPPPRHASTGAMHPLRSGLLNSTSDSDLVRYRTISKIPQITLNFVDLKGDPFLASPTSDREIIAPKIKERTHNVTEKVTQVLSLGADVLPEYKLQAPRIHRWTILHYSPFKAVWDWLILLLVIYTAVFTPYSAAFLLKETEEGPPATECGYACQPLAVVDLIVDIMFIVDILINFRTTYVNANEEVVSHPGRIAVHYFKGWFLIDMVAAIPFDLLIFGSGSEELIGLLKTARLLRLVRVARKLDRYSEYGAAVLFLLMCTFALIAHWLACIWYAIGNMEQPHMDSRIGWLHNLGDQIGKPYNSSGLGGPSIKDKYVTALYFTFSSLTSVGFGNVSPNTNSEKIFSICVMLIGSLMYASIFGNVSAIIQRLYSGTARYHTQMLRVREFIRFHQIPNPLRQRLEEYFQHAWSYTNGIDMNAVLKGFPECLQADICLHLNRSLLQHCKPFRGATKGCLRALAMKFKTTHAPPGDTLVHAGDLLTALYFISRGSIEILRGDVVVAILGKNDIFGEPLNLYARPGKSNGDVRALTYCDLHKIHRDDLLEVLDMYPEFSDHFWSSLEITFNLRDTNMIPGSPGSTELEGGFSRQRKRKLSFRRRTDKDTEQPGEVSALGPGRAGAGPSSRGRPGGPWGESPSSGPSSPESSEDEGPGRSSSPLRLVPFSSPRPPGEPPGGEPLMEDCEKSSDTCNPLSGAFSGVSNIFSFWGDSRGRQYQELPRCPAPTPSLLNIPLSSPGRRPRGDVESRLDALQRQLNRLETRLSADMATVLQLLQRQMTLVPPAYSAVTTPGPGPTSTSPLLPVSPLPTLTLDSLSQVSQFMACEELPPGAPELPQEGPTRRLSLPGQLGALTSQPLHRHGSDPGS
Stromelysin-1, sequence (P08254 whole entry): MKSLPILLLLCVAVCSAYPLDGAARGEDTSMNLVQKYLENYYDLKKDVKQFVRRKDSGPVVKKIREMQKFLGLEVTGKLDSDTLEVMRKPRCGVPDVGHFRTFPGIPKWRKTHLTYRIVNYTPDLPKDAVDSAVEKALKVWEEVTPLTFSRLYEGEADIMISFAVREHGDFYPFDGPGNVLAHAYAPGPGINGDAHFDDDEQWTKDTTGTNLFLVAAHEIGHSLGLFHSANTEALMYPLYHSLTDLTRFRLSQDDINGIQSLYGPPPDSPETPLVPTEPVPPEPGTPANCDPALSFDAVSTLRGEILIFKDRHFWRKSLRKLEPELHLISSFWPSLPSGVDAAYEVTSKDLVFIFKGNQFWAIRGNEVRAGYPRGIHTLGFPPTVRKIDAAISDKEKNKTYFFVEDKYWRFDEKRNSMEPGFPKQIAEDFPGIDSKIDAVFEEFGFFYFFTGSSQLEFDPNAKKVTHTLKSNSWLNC
Matrix metalloproteinase-9, sequence (P14780 whole entry): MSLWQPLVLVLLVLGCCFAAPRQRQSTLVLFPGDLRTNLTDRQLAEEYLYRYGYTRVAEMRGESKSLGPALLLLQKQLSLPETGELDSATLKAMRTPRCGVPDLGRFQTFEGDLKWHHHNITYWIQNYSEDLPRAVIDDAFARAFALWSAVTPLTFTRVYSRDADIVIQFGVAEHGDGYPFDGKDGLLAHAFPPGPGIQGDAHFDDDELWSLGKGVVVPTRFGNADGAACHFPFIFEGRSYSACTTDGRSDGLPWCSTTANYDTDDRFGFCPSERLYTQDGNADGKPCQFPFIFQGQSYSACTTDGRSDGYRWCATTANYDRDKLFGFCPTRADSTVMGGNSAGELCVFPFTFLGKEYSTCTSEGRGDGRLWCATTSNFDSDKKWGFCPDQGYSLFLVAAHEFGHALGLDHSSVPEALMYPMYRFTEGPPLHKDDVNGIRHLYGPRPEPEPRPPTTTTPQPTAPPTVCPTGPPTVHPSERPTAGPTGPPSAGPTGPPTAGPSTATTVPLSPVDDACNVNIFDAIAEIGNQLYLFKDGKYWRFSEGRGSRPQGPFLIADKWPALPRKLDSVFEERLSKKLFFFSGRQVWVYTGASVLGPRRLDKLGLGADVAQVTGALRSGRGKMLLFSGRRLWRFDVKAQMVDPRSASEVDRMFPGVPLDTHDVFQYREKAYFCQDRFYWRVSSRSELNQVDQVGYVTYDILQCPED
Macrophage metalloelastase (Mus musculus, UniProt P34960), sequence (P34960 whole entry): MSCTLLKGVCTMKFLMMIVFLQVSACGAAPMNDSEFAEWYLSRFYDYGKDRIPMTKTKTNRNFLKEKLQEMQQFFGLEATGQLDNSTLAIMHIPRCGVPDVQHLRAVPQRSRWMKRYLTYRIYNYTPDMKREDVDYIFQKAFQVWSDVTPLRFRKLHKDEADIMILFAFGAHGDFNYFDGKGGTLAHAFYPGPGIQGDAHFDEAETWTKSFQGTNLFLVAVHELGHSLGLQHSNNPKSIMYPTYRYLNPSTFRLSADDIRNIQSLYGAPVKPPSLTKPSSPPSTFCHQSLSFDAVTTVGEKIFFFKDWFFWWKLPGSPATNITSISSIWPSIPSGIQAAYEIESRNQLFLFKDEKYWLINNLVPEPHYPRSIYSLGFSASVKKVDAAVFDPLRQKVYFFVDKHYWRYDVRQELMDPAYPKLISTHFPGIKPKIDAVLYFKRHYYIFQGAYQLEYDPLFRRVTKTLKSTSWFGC

- IC50 [1]: 361 nM
SMILES: CC(C)[C@H](NS(=O)(=O)c1ccc2c(c1)oc1cc(NC(=O)Oc3ccc(F)cc3)ccc12)C(=O)O

SMILES: CC(C)[C@H](NS(=O)(=O)c1ccc2c(c1)oc1ccc(NC(=O)NC3CCCC3)cc12)C(=O)O
- IC50 [1]: 2.1 nM

SMILES: CC(C)[C@H](NS(=O)(=O)c1ccc2c(c1)oc1ccc(NC(=O)NCCc3cccs3)cc12)C(=O)O
- IC50 [1]: 1.1 nM
- Vd [2]: 15.6 L/kg
- clearance [3]: 211 mL/min/kg

- IC50 [1]: 180 nM
SMILES: CC(C)[C@H](NS(=O)(=O)c1ccc2c(c1)oc1ccc(NC(=O)Oc3ccccc3Cl)cc12)C(=O)O

- IC50 [1]: > 1000 nM
SMILES: COC(=O)Nc1ccc2c(c1)oc1cc(S(=O)(=O)N[C@H](C(=O)O)C(C)C)ccc12

SMILES: CCCOC(=O)Nc1ccc2oc3cc(S(=O)(=O)N[C@H](C(=O)O)C(C)C)ccc3c2c1
- IC50 [1]: 10 nM

- IC50 [1]: 10 nM
SMILES: CC(C)COC(=O)Nc1ccc2oc3cc(S(=O)(=O)N[C@H](C(=O)O)C(C)C)ccc3c2c1

- IC50 [1]: 25000 nM
SMILES: CC(C)[C@H](NS(=O)(=O)c1ccc2oc3ccccc3c2c1)C(=O)O

- IC50 [1]: 59 nM
SMILES: CC(C)[C@H](NS(=O)(=O)c1ccc2c(c1)oc1ccc(NC(N)=O)cc12)C(=O)O

SMILES: COC(=O)Nc1ccc2oc3cc(S(=O)(=O)N[C@H](C(=O)O)C(C)C)ccc3c2c1
- Cmax [4]: 3080 ng/mL
- AUC [5]: 7480 ng·h/mL
- bioavailability [6]: 27%
- IC50 [7]: 351 nM
- IC50 [8]: > 22000 nM
- IC50 [9]: 1300 nM
- IC50 [10]: > 5000 nM
- IC50 [11]: > 10000 nM
- IC50 [12]: 1100 nM
- half-life [13]: > 1 h
- half-life [14]: > 1 h
- half-life [15]: > 1 h
- half-life [16]: > 1 h
- Activity [17]: Not Active
- half-life [18]: > 1 h
- inhibition in vivo at 30 mg/kg [19]: > 70%
- minimal effective dose [20]: 5 mg/kg
- inhibition in vivo at 30 mg/kg [21]: > 50%
- IC50 [22]: > 6000 nM
- IC50 [23]: 22.3 nM
- IC50 [24]: 160 nM
- IC50 [1]: 120 nM
- Vd [2]: 1.9 L/kg
- clearance [3]: 17.2 mL/min/kg
- half-life [25]: 3 h
- IC50 [26]: 320 nM

- Cmax [4]: 7790 ng/mL
- AUC [5]: 10800 ng·h/mL
- bioavailability [6]: 42%
- IC50 [1]: 100 nM
- Vd [2]: 1.6 L/kg
- clearance [3]: 19 mL/min/kg
- half-life [25]: 3.4 h
SMILES: CCOC(=O)Nc1ccc2oc3cc(S(=O)(=O)N[C@H](C(=O)O)C(C)C)ccc3c2c1

- IC50 [1]: 10 nM
SMILES: CC(C)[C@H](NS(=O)(=O)c1ccc2c(c1)oc1ccc(NC(=O)OCCF)cc12)C(=O)O

- IC50 [1]: 220 nM
SMILES: CC(C)[C@H](NS(=O)(=O)c1ccc2c(c1)oc1ccc(NC(=O)Oc3ccccc3)cc12)C(=O)O

- IC50 [1]: 100 nM
SMILES: Cc1ccc(OC(=O)Nc2ccc3oc4cc(S(=O)(=O)N[C@H](C(=O)O)C(C)C)ccc4c3c2)cc1

SMILES: CC(C)[C@H](NS(=O)(=O)c1ccc2c(c1)oc1ccc(NC(=O)Nc3ccsc3)cc12)C(=O)O
- IC50 [1]: 3.3 nM
